Experimental data taken from US20140051575A1 (priority 2011, published 2014).

How the values were obtained:
[1] = test system: Phytophthora infestans; type: in vivo; details: tomato plants, preventive spray, 500 ppm of active ingredient, evaluated 7 days after inoculation; 0% = untreated control, 100% = no disease
[2] = Measurement of logP values by HPLC on reversed phase columns (EEC directive 79/831 Annex V.A8); type: physicochemical; details: pH 2.7, 0.1% formic acid in water / acetonitrile gradient, calibration with alkan-2-ones
Experimental: Measurement of logP values was performed according EEC directive 79/831 Annex V.A8 by HPLC (High Performance Liquid Chromatography) on reversed phase columns with the following methods:
Measurement of LC-MS was done at pH 2.7 with 0.1% formic acid in water and with acetonitrile (contains 0.1% formic acid) as eluent with a linear gradient from 10% acetonitrile to 95% acetonitrile.
Calibration was done with not branched alkan2-ones (with 3 to 16 carbon atoms) with known logP-values (measurement of logP values using retention times with linear interpolation between successive alkanones). lambda-maX-values were determined using UV-spectra from 200 nm to 400 nm and the peak values of the chromatographic signals.

[3] = test system: Plasmopara viticola; assay: Plasmopara test (grapevines)/preventive; type: in vivo; details: preventive spray, 10 ppm of active ingredient, evaluated 6 days after inoculation, 0% = untreated control, 100% = no disease
Experimental: To produce a suitable preparation of active compound, 1 part by weight of active compound is mixed with the stated amounts of solvent and emulsifier, and the concentrate is diluted with water to the desired concentration.
To test for preventive activity, young plants are sprayed with the preparation of active compound at the stated rate of application. After the spray coating has dried on, the plants are inoculated with an aqueous spore suspension of Plasmopara viticola and then remain for 1 day in an incubation cabinet at approximately 20° C. and a relative atmospheric humidity of 100%. The plant is subsequently placed for 4 days in a greenhouse at approximately 21° C. and a relative atmospheric humidity of approximately 90%. The plants are then misted and placed for 1 day in an incubation cabinet.
The test is evaluated 6 days after the inoculation. 0% means an efficacy which corresponds to that of the untreated control, while an efficacy of 100% means that no disease is observed.

## Cn1nnnc1C(=NOCc1cccc(NC(=O)COCC2CCC2)n1)c1ccccc1 [Example 4]
[1]
  Eff. %: 97%
[2]
  Log P: 3.83
[3]
  Eff. %: 80%

## CC(OCC1CC1)C(=O)Nc1ccc(F)c(CON=C(c2ccccc2)c2nnnn2C)n1 (centres unmarked) [Example 9]
[1]
  Eff. %: 100%
[2]
  Log P: 3.71
[3]
  Eff. %: 89%

## CC(OCC1CCC1)C(=O)Nc1cccc(CON=C(c2ccccc2)c2nnnn2C)n1 (centres unmarked) [Example 12]
[1]
  Eff. %: 100%
[2]
  Log P: 4.16
[3]
  Eff. %: 84%

## Cn1nnnc1C(=NOCc1csc(NC(=O)COCC2CC2)n1)c1ccccc1 [Example 13]
[2]
  Log P: 3.04
[3]
  Eff. %: 79%

## Cn1nnnc1C(=NOCc1csc(NC(=O)COCC2CCC2)n1)c1ccccc1 [Example 15]
[1]
  Eff. %: 100%
[2]
  Log P: 3.52
[3]
  Eff. %: 100%

## Cn1nnnc1C(=NOCc1csc(NC(=O)COCC2CCCC2)n1)c1ccccc1 [Example 16]
[1]
  Eff. %: 97%
[2]
  Log P: 3.9
[3]
  Eff. %: 90%

## Cc1nnnn1C(=NOCc1csc(NC(=O)COCC2CC2)n1)c1ccccc1 [Example 33]
[2]
  Log P: 3.11
[3]
  Eff. %: 94%

## CC(OCc1ccccc1)C(=O)Nc1nc(CON=C(c2ccccc2)c2nnnn2C)cs1 (centres unmarked) [Example 49]
[2]
  Log P: 3.71
[3]
  Eff. %: 92%

## Cc1ccccc1CSCC(=O)Nc1cccc(CON=C(c2ccccc2)c2nnnn2C)n1 [Example 65]
[3]
  Eff. %: 84%

## Cn1nnnc1C(=NOCc1cccc(NC(=O)CSCC2CC2)n1)c1ccccc1 [Example 67]
[2]
  Log P: 3.51
[3]
  Eff. %: 78%

## Cn1nnnc1C(=NOCc1cccc(NC(=O)C2Cc3ccccc32)n1)c1ccccc1 (centres unmarked) [Example 91]
[2]
  Log P: 3.58
[3]
  Eff. %: 77%

## Cn1nnnc1C(=NOCc1csc(NC(=O)C(C)(C)CSC2CCCCC2)n1)c1ccccc1 [Example 102]
[1]
  Eff. %: 100%
[2]
  Log P: 4.77

## COC(C)CC(CC(=O)Nc1nc(CON=C(c2ccccc2)c2nnnn2C)cs1)OC (centres unmarked) [Example 103]
[1]
  Eff. %: 95%
[2]
  Log P: 2.78

## CC(COCc1ccccc1)C(=O)Nc1nc(CON=C(c2ccccc2)c2nnnn2C)cs1 (centres unmarked) [Example 104]
[1]
  Eff. %: 100%
[2]
  Log P: 3.65

## CC(OCC(=O)Nc1nc(CON=C(c2ccccc2)c2nnnn2C)cs1)c1ccccc1 (centres unmarked) [Example 105]
[1]
  Eff. %: 95%
[2]
  Log P: 3.7

## Cn1nnnc1C(=NOCc1csc(NC(=O)CCOCc2ccccc2)n1)c1ccccc1 [Example 106]
[1]
  Eff. %: 93%
[2]
  Log P: 3.33

## Cn1nnnc1C(=NOCc1csc(NC(=O)CCSCc2ccc(F)cc2)n1)c1ccccc1 [Example 107]
[1]
  Eff. %: 95%
[2]
  Log P: 3.73

## Cn1nnnc1C(=NOCc1csc(NC(=O)CCSCc2ccccc2)n1)c1ccccc1 [Example 108]
[1]
  Eff. %: 90%
[2]
  Log P: 3.69

## Cc1nnnn1C(=NOCc1cccc(NC(=O)C(C)(C)CSC2CCCCC2)n1)c1ccccc1 [Example 109]
[1]
  Eff. %: 95%
[2]
  Log P: 5.08

## Cc1nnnn1C(=NOCc1cccc(NC(=O)CCOCc2ccccc2)n1)c1ccccc1 [Example 110]
[1]
  Eff. %: 85%
[2]
  Log P: 3.55

## Cc1nnnn1C(=NOCc1cccc(NC(=O)CCSCc2ccc(F)cc2)n1)c1ccccc1 [Example 111]
[1]
  Eff. %: 90%
[2]
  Log P: 3.92

## Cc1nnnn1C(=NOCc1cccc(NC(=O)CCSCc2ccccc2)n1)c1ccccc1 [Example 112]
[1]
  Eff. %: 88%
[2]
  Log P: 3.89

## Cc1nnnn1C(=NOCc1csc(NC(=O)C(C)(C)CSC2CCCCC2)n1)c1ccccc1 [Example 113]
[1]
  Eff. %: 98%
[2]
  Log P: 4.85

## Cc1nnnn1C(=NOCc1csc(NC(=O)CCOCc2ccccc2)n1)c1ccccc1 [Example 114]
[1]
  Eff. %: 93%
[2]
  Log P: 3.37

## Cc1nnnn1C(=NOCc1csc(NC(=O)CCSCc2ccc(F)cc2)n1)c1ccccc1 [Example 115]
[1]
  Eff. %: 80%
[2]
  Log P: 3.78

## Cc1nnnn1C(=NOCc1csc(NC(=O)CCSCc2ccccc2)n1)c1ccccc1 [Example 116]
[1]
  Eff. %: 80%
[2]
  Log P: 3.73
